Data as given in article PMC8018465, “Antimicrobial activities of a small molecule compound II-6s against oral streptococci” (Journal of Oral Microbiology, 2021).
Converted amounts (≈) assume the structure as drawn.

Key:
S. sanguinis biofilm = assay: Biofilm susceptibility assay (crystal violet); type: cell-based, Streptococcus sanguinis ATCC10556; settings: 24 h; for MBIC: S. sanguinis biofilm formation, at least 90% inhibition; for MBRC: S. sanguinis one-day biofilm, at least 90% reduction
Description: (§1) Streptococcus mutans UA159, Streptococcus gordonii DL1 and Streptococcus sanguinis ATCC10556 were obtained from the State Key Laboratory of Oral Diseases (Sichuan University, Chengdu, China). All strains were routinely cultured in brain heart infusion broth (BHI; Difco, Sparks, MD) under anaerobic conditions (5% CO2) at 37°C. For biofilm formation, bacteria were cultured in BHI broth supplied with 1% sucrose (designated BHIS). The effect of II-6s on S. mutans, S. gordonii, and S. sanguinis biofilm was examined by the microdilution method described previously. S. mutans, S. gordonii, and S. sanguinis (1 × 10^7 CFU/ml) respectively, were cultured in BHIS broth and II-6s (0.98 to 500 μg/ml) in 96-well microtiter plates for 24 h. A parallel study was also performed with BHIS as a negative control. After incubation, the culture supernatant and agent were removed, and each well was gently washed three times with phosphate-buffered saline (PBS), then fixed the adherent biofilm was fixed with methanol for 15 min, and stained with 0.1% (wt/vol) crystal violet (Sigma) for 5 min. The excess crystal violet stain in each well was rinsed away with PBS until the blank control wells were colorless. Finally, 200 μl of 95% ethanol was added to each well to dissolve the crystal violet attached to the biofilm. The plate was shaken at room temperature for 30 min, and the absorbance at 595 nm was recorded. To examine the effects of II-6s on mature biofilm, bacterial suspensions were inoculated into a 96-well microtiter plate containing BHIS and incubated at 37°C for 24 h. After biofilm developed, the supernatant from each well was decanted and planktonic cells were removed by washing with sterile PBS. Fresh BHI broth containing II-6s (0.98 to 500 μg/ml) was added to the one-day biofilm, and the plate was further incubated for 24 h. The control wells contained BHIS broth without II-6s. Similarly, the biofilm was fixed, stained, washed, and quantified as described above. […] The experiment was performed in triplicates and repeated at least three times.

S. mutans [1] = assay: Bacterial drug resistance assay (MIC after repeated passages); type: cell-based, Streptococcus mutans UA159; settings: for change of MIC / induction of drug resistance after repeated exposure: 15 passages
Description: To examine whether S. mutans could develop drug resistance against II-6s, MIC measurements after repeated successive passages were performed to analyze the antimicrobial resistance, following a previous method. The MIC values of II-6s against S. mutans were tested as described above. After the initial MIC was determined, 20 µl of bacterial suspension in a well showing 1/2 MIC was mixed with 1,980 µl of BHI medium to eliminate the influence of residual drug. A volume of 50 µl of the resultant bacterial suspension was then inoculated onto a BHI agar plate followed by incubation at 37°C for 48 h. The colonies grown on the agar plate were again suspended in BHI broth. The overnight bacterial suspensions were diluted to a concentration of 1 × 10^7 CFU/ml for the next MIC test. The same procedure was repeatedly performed for 15 passages. An increase of four-fold or higher in MIC over the initial MIC was considered to be the standard for inducing resistance to an antibacterial agent. The assay was done in triplicates and repeated three times.

S. mutans [2] = assay: Bacterial susceptibility assay (microdilution, planktonic); type: cell-based, Streptococcus mutans UA159; settings: Streptococcus mutans
Description: Streptococcus mutans UA159, Streptococcus gordonii DL1 and Streptococcus sanguinis ATCC10556 were obtained from the State Key Laboratory of Oral Diseases (Sichuan University, Chengdu, China). All strains were routinely cultured in brain heart infusion broth (BHI; Difco, Sparks, MD) under anaerobic conditions (5% CO2) at 37°C. For biofilm formation, bacteria were cultured in BHI broth supplied with 1% sucrose (designated BHIS).
The minimum inhibitory concentration (MIC) and minimum bactericidal concentration (MBC) of II-6s against S. mutans, S. gordonii, and S. sanguinis were measured by a microdilution method in BHI as described previously. The bacterial inoculum for the experiment was adjusted to 1 × 10^7 colony-forming units (CFU)/ml for S. mutans, S. gordonii, and S. sanguinis based on the optical density at 600 nm (OD600) versus a CFU/ml graph of each bacterium. Bacterial suspension was added to 96-well microtiter plates which were supplemented with serially diluted concentrations of II-6s ranging from 0.98 to 500 μg/ml. Each plate also included CHX ranging from 0.98 to 500 μg/ml as a positive control, test bacteria and BHI broth as a negative control, BHI broth containing equivalent DMSO (0.5% to 0.001%, ν/ν) as a solvent control and a blank control. […] The lowest concentration of the test solutions that allowed no visible growth on a BHI agar plate was taken as MBC. The experiment was performed in triplicates and repeated at least three times.

S. gordonii biofilm = assay: Biofilm susceptibility assay (crystal violet); type: cell-based, Streptococcus gordonii DL1; settings: 24 h; for MBIC: S. gordonii biofilm formation, at least 90% inhibition; for MBRC: S. gordonii one-day biofilm, at least 90% reduction
Description: as §1

[3] = S. mutans, planktonic, BHI medium

Compound | MBIC (S. sanguinis biofilm) [µg/mL] | MBRC (S. sanguinis biofilm) [µg/mL] | change of MIC / induction of drug resistance after repeated exposure (S. mutans [1]) | MBC (S. mutans [2]; [3]) [µg/mL] | MIC (S. mutans [2]; S. mutans, planktonic, BHI medium, read-out: MIC) [µg/mL] | MBIC (S. gordonii biofilm) [µg/mL] | MBRC (S. gordonii biofilm) [µg/mL] | MIC (S. mutans [1]; Streptococcus mutans, read-out: MIC against S. mutans during passaging) [µg/mL] | MIC (S. mutans [2]) [µg/mL]
[H]/N=C(\N/C(=N/[H])NCCCCCCNC(=N)NC(=N)Nc1ccc(Cl)cc1)Nc1ccc(Cl)cc1 [CHX, Chlorhexidine digluconate, reference compound] | 1.95 | 3.91 | increased by four times at the 15th passage | 7.81 | 1.95 | 3.91 | 15.63 | – | –
CC(C)(Cc1ccc2ccccc2c1)NC[C@H](O)CNc1cc(C(F)(F)F)cc(C(F)(F)F)c1 [II-6s, (S)-1-((3,5-bis(trifluoromethyl)phenyl)amino)-3-((2-methyl-1-(naphthalen-2-yl)propan-2-yl)amino)propan-2-ol] | 3.91 | 3.91 | did not induce drug resistance | 15.6 (≈ 32.3 µM) | – | 3.91 | 3.91 | 3.91 (≈ 8.07 µM) | 3.91 (≈ 8.07 µM)
